Legend:
[1] = system: human hair follicles-derived outer root sheath cells; test: MTT cell division and activation in outer root sheath cells; format: cell-based; conditions: peptide 0.5 μg/ml and 5 μg/ml, 48 hours, minoxidil 1 mM positive control
Method: (§1) Primary cultured human hair follicles-derived dermal papilla cells and outer root sheath cells were subcultured to passages 2 to 3, and then treated with minoxidil, which has been conventionally used as an agent for preventing hair loss and treating hair growth as a positive control at a concentration of 1 mM, and separately treated with the adiponectin-derived peptide of the present invention prepared in Example 1 at concentrations of 0.5 μg/ml and 5 μg/ml. After 48 hours, the activated living cells were stained with an MTT solution and compared with a negative control group, and the degree of division and activation of the cells was confirmed.

[2] = system: human hair follicles-derived dermal papilla cells; test: MTT cell division and activation in dermal papilla cells; format: cell-based; conditions: peptide 0.5 μg/ml and 5 μg/ml, 48 hours, minoxidil 1 mM positive control
Method: as §1

Substance | cell division of outer root sheath cells [1] | cell division of dermal papilla cells [2]
NIPGL (P10 peptide from adiponectin (NIPGL)) [adiponectin-derived 5-mer peptide] | more excellent effect than minoxidil | more excellent effect than minoxidil
GLYYF (P5 peptide from adiponectin (GLYYF)) [adiponectin-derived 5-mer peptide] | more excellent effect than minoxidil | more excellent effect than minoxidil

Reference: US11771636B2, “Composition for promoting hair growth comprising adiponectin-derived peptide” (JUNGJINHO EFFECT INC., priority 2018, dated 2023)
